Data: article PMC11545984, “1,3-Dipolar Cycloaddition of Nitrile Oxides and Nitrilimines to (−)-β-Caryophyllene: Stereoselective Synthesis of Polycyclic Derivatives and Their Biological Testing” (International Journal of Molecular Sciences, 2024)
Read-outs that look alike come from different tables or passages of the source. Marks after values point to notes of the source that are not given here.

Tests used:
EMT6 = assay: Initial cytotoxicity testing (MTT test), EMT6; assay type: cell-based, murine; conditions: for cytotoxicity EMT6: murine mammary cell line, MTT, 72 h, two concentrations 50–100 µM
Procedure: (§1) Colon cancer (HCT116, HT29), breast cancer (MCF7, SKBR3), melanoma (SK-MEL28), lung cancer (A549), prostate cancer (DU145), human normal cells (VA-13 and HEK293), and murine mammary cell lines (EMT6) were purchased from ATCC (Manassas, VA, USA). Cells were routinely grown in RPMI 1640 culture medium, supplemented with 10% fetal bovine serum, glutamine, and 100 U/mL penicillin. HCT116, HT29, MCF7, SKBR3, SK-MEL28, A549, DU145, VA-13, HEK293, and EMT6 cells were grown in flasks in RPMI 1640 fresh culture medium with supplements at 37 °C and 5% CO2. Cells were grown as monolayer cultures, and the cells in the exponential growth phase were trypsinized and suspended in the supplemented RPMI 1640 medium.
(§2) To evaluate the cytotoxicity of the compounds, we placed cells in (20–30) × 10^3 cells/mL concentrations in 96-well culture plates for 24 h. Cells were counted after treatment with Trypan blue solution (0.4%). They were then exposed to two different concentrations of compounds 16–30 (50–100 µM) dilutions in pre-incubated cells at 37 °C for 72 h. In control wells with untreated cells, only (DMSO + PBS) was added. Cell viability was measured by the standard MTT test. The stock solutions of each compound were prepared in DMSO following by preparation of serial dilutions in PBS.
(§3) The absorbance was measured at 540 nm using a Multiskan™ FC microplate photometer and the Skanlt software 6.1 RE for microplate reader, both from Thermo Scientific (Waltham, MA, USA). Experiments were carried out in triplicate; to perform the statistical analysis, more concentrations should be evaluated.

MCF7 = assay: IC50 determination (MTT test), MCF7; assay type: cell-based; conditions: Homo sapiens, breast cancer, 72 h
Procedure: as §1
(§4) To evaluate the cytotoxicity of the SDE-series in vitro, we placed cells in (15–30) × 10^3 cells/mL concentrations in 96-well culture plates for 24 h. Cells were counted after treatment with Trypan blue solution (0.4%). After 24 h, the cells were exposed to six tested concentrations of SDE-series (50–1.5 µM) dilutions to pre-incubated cells at 37 °C for 72 h. In control wells with untreated cells, only (DMSO + PBS) was added. Cell viability was measured by the standard MTT test. The absorbance was measured at 540 nm using a Multiskan™ FC microplate photometer and the Skanlt software 6.1 RE for microplate reader, both from Thermo Scientific (Waltham, MA, USA). In vitro experiments were carried out in triplicate. GraphPad prism version 9.0 was used to determine the IC50. The IC50 data are presented as mean (±) standard deviation (SD).

HT-29 = assay: IC50 determination (MTT test), HT-29; assay type: cell-based; conditions: Homo sapiens, colon cancer, 72 h
Procedure: as §1, §4

A549 [1] = assay: IC50 determination (MTT test), A549; assay type: cell-based; conditions: Homo sapiens, lung cancer, 72 h
Procedure: as §1, §4

[2] = test system: DU145, A549, VA-13, HEK293, EMT6; assay: Initial cytotoxicity testing (MTT test), all cell lines together; assay type: cell-based; conditions: for IC50: after 72 h, read-out: IC50 on all cells
Procedure: as §1, §2, §3

SKBR3 = assay: IC50 determination (MTT test), SKBR3; assay type: cell-based; conditions: Homo sapiens, SK-BR-3, breast cancer, 72 h
Procedure: as §1, §4

HEK-293 = assay: IC50 determination (MTT test), HEK-293; assay type: cell-based; conditions: Homo sapiens, HEK293, normal cells, 72 h
Procedure: as §1, §4

in vitro = conditions: dog
HEK293 = assay: Initial cytotoxicity testing (MTT test), HEK293; assay type: cell-based, human; conditions: human healthy cells, MTT, 72 h, two concentrations 50–100 µM
Procedure: as §1, §2, §3

DU145 [3] = assay: IC50 determination (MTT test), DU145; assay type: cell-based; conditions: Homo sapiens, DU-145, prostate cancer, 72 h
Procedure: as §1, §4

[4] = test system: influenza virus A/Puerto Rico/8/34 (H1N1); assay: Antiviral (cytoprotective) activity in MDCK cells, MTT; assay type: cell-based
DU145 [5] = assay: Initial cytotoxicity testing (MTT test), DU145; assay type: cell-based, human; conditions: for cytotoxicity DU145: human cancer cell line, MTT, 72 h, two concentrations 50–100 µM; for IC50: Homo sapiens, DU-145, 72 h, read-out: cytotoxicity DU145
Procedure: as §1, §2, §3

A549 [6] = assay: Initial cytotoxicity testing (MTT test), A549; assay type: cell-based, human; conditions: for cytotoxicity A549: human cancer cell line, MTT, 72 h, two concentrations 50–100 µM; for IC50: Homo sapiens, A549, 72 h, read-out: cytotoxicity A549
Procedure: as §1, §2, §3

SK-MEL-28 = assay: IC50 determination (MTT test), SK-MEL-28; assay type: cell-based, human; conditions: 72 h; for IC50: Homo sapiens, SK-MEL-28, melanoma; for IC50 SK-MEL-28: melanoma
Procedure: as §1, §4

VA-13 = assay: Initial cytotoxicity testing (MTT test), VA-13; assay type: cell-based, human; conditions: human healthy cells, MTT, 72 h, two concentrations 50–100 µM
Procedure: as §1, §2, §3

HCT116 = assay: IC50 determination (MTT test), HCT116; assay type: cell-based, human; conditions: 72 h; for IC50: Homo sapiens, HCT-116, colon cancer; for IC50 HCT116: colon cancer
Procedure: as §1, §4

MDCK cells = assay: Cytotoxicity in MDCK cells (MTT, CC50); conditions: uninfected MDCK cells, 48 h
[7] = Initial cytotoxicity testing (MTT test), HEK293; assay type: cell-based, human; conditions: human healthy cells, MTT, 72 h, two concentrations 50–100 µM
Procedure: as §1, §2, §3

[8] = Initial cytotoxicity testing (MTT test), VA-13; assay type: cell-based, human; conditions: human healthy cells, MTT, 72 h, two concentrations 50–100 µM
Procedure: as §1, §2, §3

[9] = test system: a variety of cancer cell lines; assay: IC50 determination (MTT test), variety of cancer cell lines; assay type: cell-based; conditions: Homo sapiens, 72 h, read-out: IC50 range on a variety of cancer cell lines
Procedure: as §1
as §4, with “In vitro experiments were carried out in triplicate. GraphPad prism version 9.0 was used to determine the IC50. The IC50 data are presented as mean (±) standard deviation (SD).” left out

[10] = test system: influenza virus A/Puerto Rico/8/34 (H1N1); assay: Time-of-addition experiment in MDCK cells; assay type: cell-based; conditions: m.o.i. 10, addition from -2 h to 6 hpi
[11] = H1N1, infected MDCK cells, m.o.i. 0.01, 48 h, 50% cell protection, read-out: IC50

SMILES | cytotoxicity EMT6 (EMT6) | IC50 (MCF7) | IC50 (HT-29) | IC50 (A549 [1]) | IC50 (SKBR3) | IC50 (HEK-293) | CC50 at 48 h (in vitro) | IC50 (DU145 [3]) | IC50 [4, 11] | IC50 (SK-MEL-28) | IC50 (HCT116) | CC50 (MDCK cells) | IC50 at 72 h [7] | IC50 (DU145 [5]) | IC50 (A549 [6]) | IC50 at 72 h [8] | other results
COc1ccc(C2=NO[C@]3(CC/C=C(\C)CC[C@@H]4[C@@H]3CC4(C)C)C2)cc1 [Compound 17a, (1S,2R,9R,E)-3′-(4-Methoxyphenyl)-6,10,10-trimethyl-4′H-spiro[bicyclo [7.2.0]undecane-2,5′-isoxazol]-5-ene] | + * | > 50 µM | 47.1 ± 3 µM | 30.7 ± 2.1 µM | 36.5 ± 3.2 µM | 44.3 ± 4.1 µM | 37 ± 2.2 µM | 42.6 ± 3.4 µM | 8.03 ± 1.1 µM | 38.9 ± 3.9 µM | 39.4 ± 2.8 µM |  |  |  |  |  | toxicity to all cells [2]: extremely toxic, killing all cells within 48 h; cytotoxicity HEK293 (HEK293): + *; cytotoxicity DU145 (DU145 [5]): + *; cytotoxicity A549 (A549 [6]): + *; cytotoxicity VA-13 (VA-13): + *
CC(N)C12CC3CC(CC(C3)C1)C2 (stereo not shown) [Rimantadine, reference compound] |  |  |  |  |  |  |  |  |  |  |  | 335 ± 27 µM |  |  |  |  | IC50 ([4]; H1N1, MDCK, 48 h): 67 ± 4.9 µM
COc1cccc(OC)c1C1=NN(c2c(Cl)cc(Cl)cc2Cl)[C@]2(CC/C=C(\C)CC[C@@H]3[C@@H]2CC3(C)C)C1 [Compound 23a, (1S,2R,9R,E)-5′-(2,6-Dimethoxyphenyl)-6,10,10-trimethyl-2′-(2,4,6-trichlorophenyl)-2′,4′-dihydrospiro[bicyclo [7.2.0]undecane-2,3′-pyrazol]-5-ene] | + * | > 50 µM | 45 ± 1.9 µM | 33.4 ± 2.2 µM | > 50 µM | 39.2 ± 3 µM | 10.2 ± 0.8 µM | 28.8 ± 1.2 µM | > 5.59 µM | > 50 µM | > 50 µM |  | < 50 µM | < 50 µM | < 50 µM | < 50 µM | toxicity against EMT6 (EMT6; initial testing): extremely toxic; IC50 [2]: < 50 µM; IC50 SK-MEL-28 (SK-MEL-28): did not show any cytotoxic effects; IC50 HCT116 (HCT116): did not show any cytotoxic effects
CC(N)C1C[C@@H]2CC[C@H]1C2 (stereo partly shown) [Deitiforin, reference compound] |  |  |  |  |  |  |  |  |  |  |  | 1270 ± 82 µM |  |  |  |  | 
CC1=CCCC2(CC(C)=NN2c2ccccc2)C2CC(C)(C)C2CC1 [Compound 21a, (1S,2R,9R,E)-5′,6,10,10-Tetramethyl-2′-phenyl-2′,4′-dihydrospiro[bicyclo [7.2.0]undecane-2,3′-pyrazol]-5-ene] | + * | > 50 µM | 39.4 ± 2.1 µM | 21.2 ± 0.9 µM | 12.3 ± 1 µM | 14.2 ± 0.9 µM | 28 ± 1.9 µM | 18.8 ± 0.4 µM | 6.25 ± 0.7 µM | 24.9 ± 1.3 µM | 22.4 ± 0.8 µM |  |  |  |  |  | toxicity to all cells [2]: extremely toxic, killing all cells within 48 h; IC50 [9]: 12.3 to 39.4 µM; cytotoxicity HEK293 (HEK293): + *; cytotoxicity DU145 (DU145 [5]): + *; cytotoxicity A549 (A549 [6]): + *; cytotoxicity VA-13 (VA-13): + *
NC12CC3CC(CC(C3)C1)C2 [Amantadine, reference compound] |  |  |  |  |  |  |  |  | 64 ± 5 µM |  |  | 284 ± 21 µM |  |  |  |  | 
NC(=O)c1ncn([C@@H]2O[C@H](CO)[C@@H](O)[C@H]2O)n1 [Ribavirin, reference compound] |  |  |  |  |  |  |  |  | 25 µM |  |  | > 2000 µM |  |  |  |  | 
C=C1CC[C@@H]2C(c3ccc(OC)cc3)=NO[C@@]2(C)CC[C@@H]2[C@@H]1CC2(C)C [Compound 17b, (3aR,6aS,8aR,10aS)-3-(4-methoxyphenyl)-8,8,10a-trimethyl-6-methylene-3a,5,6,6a,7,8,8a,9,10,10a-decahydro-4H-cyclobuta [5,6]cyclonona [1,2-d]isoxazole] |  |  |  |  |  |  | 27 ± 2.4 µM |  | > 12.8 µM |  |  |  | < 50 µM | < 50 µM | < 50 µM | < 50 µM | IC50 [2]: < 50 µM
CC1(C)C[C@H]2[C@H]1CC[C@]1(C)ON=C(c3ccc(Cl)cc3)[C@H]1CC[C@@]21CC(c2ccc(Cl)cc2)=NO1 [Compound 25, (3aR,6R,6aS,8aR,10aS)-3,3′-Bis(4-chlorophenyl)-8,8,10a-trimethyl-3a,4,5,6a,7,8,8a,9,10,10a-decahydro-4′H-spiro[cyclobuta [5,6]cyclonona [1,2-d]isoxazole-6,5′-isoxazole]] |  | > 50 µM | > 50 µM | > 50 µM | > 50 µM | > 50 µM | 426 ± 26.9 µM | > 50 µM | 34.1 ± 4.4 µM | > 50 µM | > 50 µM |  | > 50 µM | 50 to 100 µM | 50 to 100 µM | > 50 µM | toxicity to DU145 (DU145 [5]; initial testing): harmful; toxicity to A549 (A549 [6]; initial testing): harmful; IC50 SK-MEL-28 (SK-MEL-28): did not show any cytotoxic effects; IC50 HCT116 (HCT116): did not show any cytotoxic effects; latest time of addition with virus-inhibiting activity [10]: ≤ 6 hpi
